Measured values: patent US8765748B2, “Indazolyl, benzimidazolyl, benzotriazolyl substituted indolinone derivatives as kinase inhibitors useful in the treatment of cancer” (University Health Network, priority 2007, dated 2014)

Experiments:
Assay type in all cases: biochemical
human PLK4 = target: T1, human PLK4 (Homo sapiens, UniProt O00444); assay: PLK4 Inhibition Assay (indirect ELISA); details: 15 μM ATP, 4 nM GST-PLK4; read-out: PLK4 IC50 Ranges
T1 construct: amino terminal GST fusion of residues 1-391 of human PLK4; made in house; host or cells: E. coli
T1 sequence (O00444 1-391): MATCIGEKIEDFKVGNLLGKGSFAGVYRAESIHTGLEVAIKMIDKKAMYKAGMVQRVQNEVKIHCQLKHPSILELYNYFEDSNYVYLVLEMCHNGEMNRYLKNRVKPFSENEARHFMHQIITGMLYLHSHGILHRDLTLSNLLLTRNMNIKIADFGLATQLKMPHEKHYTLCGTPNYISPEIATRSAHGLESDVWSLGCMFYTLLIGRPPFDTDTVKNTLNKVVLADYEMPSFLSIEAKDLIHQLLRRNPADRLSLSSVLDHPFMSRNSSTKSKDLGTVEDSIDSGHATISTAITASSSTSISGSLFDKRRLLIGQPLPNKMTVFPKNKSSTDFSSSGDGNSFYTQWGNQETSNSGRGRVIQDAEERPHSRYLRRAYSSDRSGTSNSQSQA
Method in brief: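 Dephosphorylated (lambda phosphatase) GST-PLK4 activity read by indirect ELISA. Compounds were pre-incubated with enzyme for 15 minutes before ATP was added. IC50 came from a non-linear 4-point logistic fit.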

PLK1 = target: T2, PLK1 (Homo sapiens, UniProt P53350); assay: PLK1 Inhibition Assay (Z-Lyte); details: for inhibition at 10 µM: 10 μM compound, read-out: PLK1 relative inhibition percentage at a dose of 10 μM; for IC50: 25 μM ATP, 8 nM PLK1, read-out: PLK1 IC50 Ranges
T2 construct: purchased Invitrogen PV3501
Description: PLK1 inhibition was determined using the Z-Lyte assay kit from Invitrogen (cat #PV3802). […] The % inhibition values were determined according to the manufacturer's directions and IC50 values were obtained using a non-linear 4 point logistic curve fit (XLfit4, IDBS)

PLK2 = target: T3, PLK2 (Homo sapiens, UniProt Q9NYY3); assay: PLK2 Inhibition Assay (Z-Lyte); details: 10 μM compound; read-out: PLK2 relative inhibition percentage at a dose of 10 μM
T3 construct: purchased Invitrogen PV4204
Description: (§1) PLK2 inhibition was determined using the Z-Lyte assay kit from Invitrogen (cat #PV3802). The assay was performed using the recommended manufacturer's instructions with 60 μM ATP and 133 nM PLK2 (Invitrogen cat #PV4204). The % inhibition values were determined according to the manufacturer's directions and IC50 values were obtained using a non-linear 4 point logistic curve fit (XLfit4, IDBS)

Aurora A = target: T4, Aurora A (Homo sapiens, UniProt O14965); assay: Aurora A Inhibition Assay (Z-Lyte); details: for inhibition at 10 µM: 10 μM compound, read-out: Aurora A relative inhibition percentage at a dose of 10 μM; for IC50: 20 μM ATP, 12 nM Aurora A, read-out: Aurora A IC50 Ranges
T4 construct: purchased Invitrogen PV3612
T4 sequence (O14965 1-403): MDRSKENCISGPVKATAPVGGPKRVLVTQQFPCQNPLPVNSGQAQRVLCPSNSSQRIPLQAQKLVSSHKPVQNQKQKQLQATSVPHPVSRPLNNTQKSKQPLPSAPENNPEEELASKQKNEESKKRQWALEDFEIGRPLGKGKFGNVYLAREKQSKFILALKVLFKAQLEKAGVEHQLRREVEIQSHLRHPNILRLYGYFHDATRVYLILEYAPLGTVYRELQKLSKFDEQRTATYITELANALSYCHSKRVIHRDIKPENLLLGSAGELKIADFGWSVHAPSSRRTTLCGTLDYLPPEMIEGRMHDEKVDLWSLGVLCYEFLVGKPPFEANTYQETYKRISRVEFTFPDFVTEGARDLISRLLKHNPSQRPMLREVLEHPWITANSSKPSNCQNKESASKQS
Description: as §1, with “Aurora A” for “PLK2”, “Invitrogen.” for “Invitrogen (cat #PV3802).”, “20” for “60”, “12” for “133”, “#PV3612).” for “#PV4204).”

Aurora B = target: T5, Aurora B (Homo sapiens, UniProt Q96GD4); assay: Aurora B Inhibition Assay (Z-Lyte); details: 128 μM ATP, 28 nM Aurora B; read-out: Aurora B IC50 Ranges
T5 construct: purchased Invitrogen PV3970
Description: as §1, with “Aurora B” for “PLK2”, “Invitrogen.” for “Invitrogen (cat #PV3802).”, “128” for “60”, “28” for “133”, “#PV3970).” for “#PV4204).”

T2 sequence (P53350 whole entry): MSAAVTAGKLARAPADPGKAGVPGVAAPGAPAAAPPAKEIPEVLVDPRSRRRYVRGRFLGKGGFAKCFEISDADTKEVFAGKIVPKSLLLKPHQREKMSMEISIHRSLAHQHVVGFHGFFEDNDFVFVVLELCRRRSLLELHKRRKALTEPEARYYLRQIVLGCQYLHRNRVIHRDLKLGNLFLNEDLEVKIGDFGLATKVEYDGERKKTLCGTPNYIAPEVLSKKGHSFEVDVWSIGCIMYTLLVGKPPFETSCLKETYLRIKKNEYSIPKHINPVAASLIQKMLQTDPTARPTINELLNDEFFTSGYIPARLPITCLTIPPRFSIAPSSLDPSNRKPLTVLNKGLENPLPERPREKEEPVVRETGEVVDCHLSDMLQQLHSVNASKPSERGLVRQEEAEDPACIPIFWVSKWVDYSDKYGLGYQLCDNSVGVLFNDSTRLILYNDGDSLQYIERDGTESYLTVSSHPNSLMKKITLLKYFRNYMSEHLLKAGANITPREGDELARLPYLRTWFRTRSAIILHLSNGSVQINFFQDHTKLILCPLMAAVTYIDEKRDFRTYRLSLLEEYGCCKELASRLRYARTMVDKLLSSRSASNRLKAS
T5 sequence (Q96GD4 whole entry): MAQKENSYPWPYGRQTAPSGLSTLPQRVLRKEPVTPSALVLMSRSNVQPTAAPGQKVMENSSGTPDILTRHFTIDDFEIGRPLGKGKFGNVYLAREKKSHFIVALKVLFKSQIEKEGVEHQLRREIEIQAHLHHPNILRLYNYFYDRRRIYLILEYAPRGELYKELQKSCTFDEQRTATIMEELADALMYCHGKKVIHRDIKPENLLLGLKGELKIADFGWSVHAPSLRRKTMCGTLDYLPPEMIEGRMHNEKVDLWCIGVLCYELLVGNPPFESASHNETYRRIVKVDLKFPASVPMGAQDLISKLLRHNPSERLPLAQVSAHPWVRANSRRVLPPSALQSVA
T3 sequence (Q9NYY3 whole entry): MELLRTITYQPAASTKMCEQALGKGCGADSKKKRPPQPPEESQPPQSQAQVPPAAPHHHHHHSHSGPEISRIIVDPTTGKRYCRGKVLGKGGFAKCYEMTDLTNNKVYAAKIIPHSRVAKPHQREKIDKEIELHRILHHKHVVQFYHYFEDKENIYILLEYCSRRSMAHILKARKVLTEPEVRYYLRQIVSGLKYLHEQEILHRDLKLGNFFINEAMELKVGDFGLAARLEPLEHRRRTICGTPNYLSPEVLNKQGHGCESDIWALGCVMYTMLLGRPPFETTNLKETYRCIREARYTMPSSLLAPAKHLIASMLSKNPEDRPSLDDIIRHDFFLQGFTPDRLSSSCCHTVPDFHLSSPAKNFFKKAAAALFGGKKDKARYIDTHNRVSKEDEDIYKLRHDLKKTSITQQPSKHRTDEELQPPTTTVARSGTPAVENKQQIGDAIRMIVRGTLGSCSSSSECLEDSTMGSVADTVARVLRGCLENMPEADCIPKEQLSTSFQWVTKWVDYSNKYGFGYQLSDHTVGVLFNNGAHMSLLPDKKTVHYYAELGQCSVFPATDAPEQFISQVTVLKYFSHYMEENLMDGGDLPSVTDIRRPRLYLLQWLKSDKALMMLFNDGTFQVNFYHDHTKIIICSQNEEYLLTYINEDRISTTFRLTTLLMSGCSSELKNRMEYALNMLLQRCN

| SMILES | IC50 (human PLK4) [µM] | inhibition at 10 µM (PLK1) [%] | inhibition at 10 µM (PLK2) [%] | inhibition at 10 µM (Aurora A) [%] | IC50 (Aurora B) [µM] | IC50 (PLK1) [µM] | IC50 (Aurora A) [µM] |
| --- | --- | --- | --- | --- | --- | --- | --- |
| COc1ccc2c(c1)C(=Cc1ccc3cn[nH]c3c1)C(=O)N2 (mixture of isomers) [Example A83, (E and Z)-3-((1H-indazol-6-yl)methylene)-5-methoxyindolin-2-one] | < 5 | > 50 | > 50 | > 50 | < 5 | – | – |
| Nc1ccc2c(c1)NC(=O)/C2=C/c1ccc2cn[nH]c2c1 [Example A38, (E)-3-((1H-indazol-6-yl)methylene)-2-oxoindolin-6-aminium 2,2,2-trifluoroacetate] | < 5 | – | < 50 | – | < 5 | 5 to 50 | 5 to 50 |
| CN1CCN(C(=O)c2cccc(/C=C/c3n[nH]c4cc(C=C5C(=O)Nc6ccccc65)ccc34)c2)CC1 (mixture of isomers) [Example A107, (E and Z)-3-((3-((E)-3-(4-methylpiperazine-1-carbonyl)styryl)-1H-indazol-6-yl)methylene)indolin-2-one 2,2,2-trifluoroacetate] | < 5 | > 50 | < 50 | – | < 5 | – | < 5 |
| O=C1Nc2ccc(Br)cc2/C1=C\c1ccc2cn[nH]c2c1 [Example A35, (E)-3-((1H-indazol-6-yl)methylene)-5-bromoindolin-2-one] | < 5 | – | < 50 | < 50 | < 5 | > 50 | – |
| COc1ccc2c(c1)/C(=C\c1ccc3c(/C=C/c4ccncc4)n[nH]c3c1)C(=O)N2 [Example A86, (E)-5-methoxy-3-((3-((E)-2-(pyridin-4-yl)vinyl)-1H-indazol-6-yl)methylene)indolin-2-one] | < 5 | < 50 | < 50 | > 50 | < 5 | – | – |
| CC(=O)Nc1cccc2c1NC(=O)/C2=C/c1ccc2c(/C=C/c3ccncc3)n[nH]c2c1 [Example A120, N-((E)-2-oxo-3-((3-((E)-2-(pyridin-4-yl)vinyl)-1H-indazol-6-yl)-methylene)indolin-7-yl)acetamide] | < 5 | < 50 | < 50 | – | < 5 | – | < 5 |
| Cc1ccc2c(c1)C(=Cc1ccc3cn[nH]c3c1)C(=O)N2 (mixture of isomers) [Example A81, (E and Z)-3-((1H-indazol-6-yl)methylene)-5-methylindolin-2-one] | < 5 | < 50 | < 50 | – | < 5 | – | < 5 |
| O=C1Nc2ccccc2C1=Cc1ccc2c(CCc3ccncc3)n[nH]c2c1 (mixture of isomers) [Example A64, (E and Z)-3-((3-(2-(pyridin-4-yl)ethyl)-1H-indazol-6-yl)methylene)-indolin-2-one] | < 5 | < 50 | < 50 | > 50 | < 5 | – | – |
| O=C1Nc2ccccc2/C1=C\c1cc(-c2ccncc2)c2cn[nH]c2c1 [Example A54a, (E)-3-((4-(pyridin-4-yl)-1H-indazol-6-yl)methylene)indolin-2-one] | < 5 | – | > 50 | > 50 | < 5 | > 50 | – |
| O=C1Nc2ncccc2C1=Cc1ccc2c(/C=C/c3cccnc3)n[nH]c2c1 (mixture of isomers) [Example A114, (E and Z)-3-((3-((E)-2-(pyridin-3-yl)vinyl)-1H-indazol-6-yl)methylene)-1H-pyrrolo[2,3-b]pyridin-2(3H)-one] | < 5 | < 50 | < 50 | – | < 5 | – | < 5 |
